The target of this assay is Alkaline phosphatase, tissue-nonspecific isozyme (Homo sapiens) (UniProt P05186). Kind of assay: human TNAP enzyme inhibitors, SAR follow-up, biochemical, luminescent, dose response (AID 1056). The settings on record: purified human TNAP, luminescent substrate read-out.

As a reminder, the IC50 is the concentration needed to halve the response being measured.

In the case of `CC(C)(C)NC(=O)c1cc(-c2ccc(Cl)cc2Cl)n[nH]1`, the IC50 was 398 nM.

As for `O=C1c2ccccc2C(=O)N1c1n[nH]c(Cc2ccccc2)n1`, the IC50 was 670 nM. With `COc1cc(C)c(Cl)cc1S(=O)(=O)Nc1cccnc1`, the IC50 was 511 nM.

On to `COc1cc(S(=O)(=O)Nc2cccnc2)c(OC)cc1Cl`, for which the IC50 is 1130 nM.

`COc1ccc2c(c1OC)C(=O)OC2CC(=O)c1ccc(O)c(O)c1` (stereo not given): the IC50 was 29200 nM. Turning to `O=C(NCCO)c1cc(-c2ccc(F)cc2F)n[nH]1`, the IC50 was 35 nM. Consider `CN(C)C(=O)c1cc(-c2ccc(Cl)cc2Cl)n[nH]1`, for which the IC50 is 119 nM. For `COc1cc(C)c(C)cc1S(=O)(=O)Nc1cccnc1`, the IC50 is 1680 nM. Next, `CCOc1ccc(Cl)cc1S(=O)(=O)Nc1cccnc1`: 537 nM; `Cc1nc(Br)cn1CC(=O)c1ccc(O)c(O)c1`: 8740 nM; `O=C(c1cc(-c2cc(F)c(Cl)cc2Cl)n[nH]1)N(CCO)CCO`: 127 nM. In the case of `O=C(Cn1cnc(Br)c1)c1ccc(O)c(O)c1` it was 47500 nM. Next, `O=C(c1cc(-c2ccc(Cl)cc2Cl)n[nH]1)N(CCO)CCO`: 46.8 nM; `O=C(CNc1nc2ccccc2[nH]1)c1ccc(O)c(O)c1`: 93800 nM; `COc1cc(S(=O)(=O)Nc2cccnc2)c(OC)cc1Br`: 1550 nM. As for `CCN1CCN(C(=O)c2cc(-c3ccc(Cl)cc3Cl)n[nH]2)CC1`, the IC50 is 488 nM. Take `O=C(c1cc(-c2ccc(Cl)cc2Cl)n[nH]1)N1CCOCC1`: the IC50 was 574 nM. Next, `O=C(NCCCO)c1cc(-c2ccc(Cl)cc2Cl)n[nH]1`: 31.3 nM; `CCOc1cc(C)c(Cl)cc1S(=O)(=O)Nc1cccnc1`: 691 nM; `O=C(NCCCCO)c1cc(-c2ccc(Cl)cc2Cl)n[nH]1`: 34.5 nM. As to `O=C1C2C3C=CC(C3)C2C(=O)N1c1n[nH]c(CCc2ccccc2)n1` (stereo not given), the IC50 was 30600 nM.

Consider `COc1ccc(OC)c(S(=O)(=O)Nc2cccnc2)c1`, for which the IC50 is 1060 nM. Turning to `O=C(c1cc(-c2ccc(Cl)cc2Cl)n[nH]1)N1CCCCCC1`, the IC50 was 1450 nM. In the case of `COCCNC(=O)c1cc(-c2ccc(Cl)cc2Cl)n[nH]1` it was 46.4 nM; in that of `CC(C)CNC(=O)c1cc(-c2ccc(Cl)cc2Cl)n[nH]1`, 81.5 nM. As to `O=C1C2CC=CCC2C(=O)N1c1n[nH]c(-c2ccco2)n1` (stereo not given), the concentration for half-maximal inhibition (IC50) was 4680 nM.

Take `O=C1C2CCCCC2C(=O)N1c1n[nH]c(Cc2ccccc2)n1` (stereo not given): the IC50 was 1570 nM. In the case of `COc1cccc(S(=O)(=O)Nc2cnc3ccccc3c2)c1` it was 25800 nM; in that of `CN(C)C(=O)c1cc(-c2cc(F)c(Cl)cc2Cl)n[nH]1`, 324 nM; in that of `CC(C)NC(=O)c1cc(-c2cc(F)c(Cl)cc2Cl)n[nH]1`, 4850 nM. Next, `O=C(NCCO)c1cc(-c2ccc(Cl)cc2Cl)n[nH]1`: 44.4 nM; `COc1ccc(C)cc1S(=O)(=O)Nc1cnc2ccccc2c1`: 649 nM; `COc1ccc(F)cc1S(=O)(=O)Nc1cccnc1`: 1290 nM. Take `O=C(NCCO)c1cc(-c2cc(F)c(Cl)cc2Cl)n[nH]1`: the IC50 was 100 nM. Next, `CCN(CC)C(=O)c1cc(-c2ccc(Cl)cc2Cl)n[nH]1`: 285 nM. Consider `O=C(c1cc(-c2ccc(Cl)cc2Cl)n[nH]1)N1CCN(CCO)CC1`, for which the IC50 is 375 nM. For the compound `CN1CCN(C(=O)c2cc(-c3ccc(Cl)cc3Cl)n[nH]2)CC1`, the IC50 is 828 nM.

`O=C(NCCCO)c1cc(-c2cc(F)c(Cl)cc2Cl)n[nH]1`: the half-maximal inhibitory concentration (IC50) was 55.8 nM. `O=C1C2CC=CCC2C(=O)N1c1n[nH]c(-c2cccnc2)n1` (stereo not given): the IC50 is 10500 nM. As for `O=C(NCCO)c1cc(-c2cc(F)c(F)cc2F)n[nH]1`, the IC50 was 134 nM. Next, `CC(C)CCNC(=O)c1cc(-c2ccc(Cl)cc2Cl)n[nH]1`: 459 nM; `O=C1C2CC=CCC2C(=O)N1c1n[nH]c(CCc2ccccc2)n1` (stereo not given): 27900 nM. Next, `CC(C)NC(=O)c1cc(-c2ccc(Cl)cc2Cl)n[nH]1`: 51.1 nM.

Regarding `COc1cc(S(=O)(=O)Nc2cccnc2)c(OC)cc1C`, the IC50 was 1490 nM.

In the case of `Cc1cn(CC(=O)c2ccc(O)c(O)c2)cn1`, the IC50 is 41100 nM.

The values are drawn from PubChem BioAssay AID1056 (Sanford-Burnham Center for Chemical Genomics, 2008).
